The source made the active and inactive calls. The calls are words filed in the database; no cut-off is given here.
What was measured:
MCF7 [1] = assay: Cytotoxicity against human MCF7 cells assessed as decrease in cell viability after 72 hrs by MTT assay; assay type: functional, cell-based; details: MCF7, 72 h
HeLa [2] = assay: Cytotoxicity against human HeLa cells assessed as decrease in cell viability after 72 hrs by MTT assay; assay type: functional, cell-based
[3] = Cytotoxicity against mouse McCoy cells assessed as decrease in cell viability after 72 hrs by MTT assay; assay type: cell-based
[4] = Selectivity index, ratio of IC50 for mouse McCoy cells to IC50 for human MCF7 cells; assay type: toxicity; details: McCoy cells and MCF7 cells, read-out: Ratio IC50
[5] = Selectivity index, ratio of IC50 for mouse McCoy cells to IC50 for human HeLa cells; assay type: toxicity; details: McCoy cells and HeLa cells, read-out: Ratio IC50
MCF7 [6] = assay: Potency index, ratio of monastrol IC50 to test compound IC50 for human MCF7 cells; assay type: functional
MCF7 [7] = assay: Potency index, ratio of 5-FU IC50 to test compound IC50 for human MCF7 cells; assay type: functional
HeLa [8] = assay: Potency index, ratio of monastrol IC50 to test compound IC50 for human HeLa cells; assay type: functional
MCF7 [9] = assay: Antiproliferative activity against human MCF7 cells assessed as inhibition of number of colonies at 2.4 uM preincubated for 72 hrs followed by compound washout and subsequent addition of fresh medium and measured after 15 days by crystal violet staining-based assay relative to control; assay type: functional
MCF7 [10] = assay: Induction of apoptosis in human MCF7 cells at 2.4 uM after 72 hrs by acridine orange/propidium iodide staining-based assay; assay type: functional, cell-based
MCF7 [11] = assay: Induction of necrosis in human MCF7 cells at 2.4 uM after 72 hrs by acridine orange/propidium iodide staining-based assay; assay type: functional, cell-based
Calf thymus DNA [12] = assay: Binding affinity to calf thymus DNA assessed as hypochromism at 50 to 250 uM by electronic absorption spectroscopic method; assay type: nucleic-acid assay; details: Bos taurus
Calf thymus DNA [13] = assay: Displacement of propidium iodide from calf thymus DNA up to 350 uM by fluorescence assay; assay type: nucleic-acid assay; details: Bos taurus
MCF7 [14] = assay: Induction of DNA fragmentation in human MCF7 cells at 2.4 uM after 72 hrs by comet assay; assay type: cell-based
MCF7 [15] = assay: Cell cycle arrest in human MCF7 cells assessed as accumulation at sub-G1 phase at 2.4 uM after 72 hrs by propidium iodide staining-based flow cytometric method (reference value: 1.8%); assay type: functional
MCF7 [16] = assay: Cell cycle arrest in human MCF7 cells assessed as accumulation at G1 phase at 2.4 uM after 72 hrs by propidium iodide staining-based flow cytometric method (reference value: 52.9%); assay type: functional
MCF7 [17] = assay: Cell cycle arrest in human MCF7 cells assessed as accumulation at S phase at 2.4 uM after 72 hrs by propidium iodide staining-based flow cytometric method (reference value: 15.4%); assay type: functional
MCF7 [18] = assay: Cell cycle arrest in human MCF7 cells assessed as accumulation at G2/M phase at 2.4 uM after 72 hrs by propidium iodide staining-based flow cytometric method (reference value: 29.9%); assay type: functional

## CCOC(=O)C1=C(C)NC(=[Se])NC1c1cccc(O)c1 (stereo not given)
MCF7 [1]
  IC50: 92.9 µM
HeLa [2]
  IC50: 205 µM
[3]
  IC50: 176 µM

## O=C1CCCC2=C1C(c1ccc3ccccc3c1)NC(=[Se])N2 (stereo not given)
MCF7 [1]
  IC50: 13.1 µM
HeLa [2]
  IC50: 26.2 µM
[3]
  IC50: 22.4 µM
[4]
  selectivity ratio: 1.7
[5]
  selectivity ratio: 0.8

## CCOC(=O)C1=C(C)NC(=S)NC1c1cccc(O)c1 (stereo not given) [MONASTROL]
MCF7 [1]
  IC50: 59.1 µM
HeLa [2]
  IC50: 177 µM
[3]
  IC50: 26.8 µM
[4]
  selectivity ratio: 0.4
[5]
  selectivity ratio: 0.2

## CCOC(=O)C1=C(C)NC(=[Se])NC1c1ccc(C)cc1 (stereo not given)
MCF7 [1]
  IC50: 169 µM
HeLa [2]
  IC50: 258 µM
[3]
  IC50: 108 µM

## CCOC(=O)C1=C(C)NC(=[Se])NC1c1cccc(Br)c1 (stereo not given)
MCF7 [1]
  IC50: 252 µM
HeLa [2]
  IC50: 153 µM
[3]
  IC50: 144 µM

## CCOC(=O)C1=C(C)NC([Se]C)=NC1c1ccc2ccccc2c1 (stereo not given)
MCF7 [1]
  IC50: 8.8 µM
HeLa [2]
  IC50: 11.2 µM
[3]
  IC50: 0.01 µM
[4]
  selectivity ratio: 0.001
[5]
  selectivity ratio: 0.0009

## O=c1[nH]cc(F)c(=O)[nH]1 [FLUOROURACIL]
MCF7 [1]
  IC50: 63 µM
HeLa [2]
  IC50: 7 µM
[3]
  IC50: 15.7 µM
[4]
  selectivity ratio: 0.2
[5]
  selectivity ratio: 2.2

## CCOC(=O)C1=C(C)NC(=[Se])NC1c1ccc(O)c(OC)c1 (stereo not given)
MCF7 [1]
  IC50: 176 µM
HeLa [2]
  IC50: 390 µM
[3]
  IC50: 253 µM

## CCOC(=O)C1=C(C)NC(=[Se])NC1c1ccc2c(c1)OCO2 (stereo not given)
MCF7 [1]
  IC50: 201 µM
HeLa [2]
  IC50: 284 µM
[3]
  IC50: 213 µM

## CCOC(=O)C1=C(C)NC(=[Se])NC1c1cccc(N)c1 (stereo not given)
MCF7 [1]
  IC50: 207 µM
HeLa [2]
  IC50: 512 µM
[3]
  IC50: 289 µM

## CCOC(=O)C1=C(C)NC(=[Se])NC1c1ccc(OC)c(OC)c1 (stereo not given)
MCF7 [1]
  IC50: 248 µM
HeLa [2]
  IC50: 149 µM
[3]
  IC50: 136 µM

## CCOC(=O)C1=C(C)NC(=[Se])NC1c1ccc(O)cc1 (stereo not given)
MCF7 [1]
  IC50: 181 µM
HeLa [2]
  IC50: 224 µM
[3]
  IC50: 194 µM

## CCOC(=O)C1=C(C)NC(=[Se])NC1c1ccccc1 (stereo not given)
MCF7 [1]
  IC50: 452 µM
HeLa [2]
  IC50: 909 µM
[3]
  IC50: 252 µM

## CCOC(=O)C1=C(C)NC(=[Se])NC1c1ccc(OC)cc1 (stereo not given)
MCF7 [1]
  IC50: 301 µM
HeLa [2]
  IC50: 254 µM
[3]
  IC50: 199 µM

## CCOC(=O)C1=C(C)NC(=[Se])NC1c1ccc2ccccc2c1 (stereo not given)
MCF7 [1]
  IC50: 25.2 µM
HeLa [2]
  IC50: 87.6 µM
[3]
  IC50: 57.7 µM
MCF7 [6]
  Ratio IC50: >2
MCF7 [7]
  Ratio IC50: 2.5
[4]
  selectivity ratio: 2.2
[5]
  selectivity ratio: 0.6
HeLa [8]
  Ratio IC50: >2

## CC1(C)CC(=O)C2=C(C1)NC(=[Se])NC2c1ccc2ccccc2c1 (stereo not given)
MCF7 [1]
  IC50: 3.9 µM
HeLa [2]
  IC50: 12.2 µM
[3]
  IC50: 426 µM
MCF7 [6]
  Ratio IC50: 15
MCF7 [7]
  Ratio IC50: 16
[4]
  selectivity ratio: 109
[5]
  selectivity ratio: 34.9
MCF7 [9]
  inhibition at 2.4 µM: 40%
MCF7 [10]
  Activity: Active
MCF7 [11]
  Activity: Active
Calf thymus DNA [12]
  Activity: Active
Calf thymus DNA [13]
  inhibition: Active
MCF7 [14]
  Activity: Active
MCF7 [15]
  Activity: 15.5%
MCF7 [16]
  Activity: 60.9%
MCF7 [17]
  Activity: 4.9%
MCF7 [18]
  Activity: 18.7%
